“Also recorded” adds a separate entry of the source.

For assay [1], the system named is rat kidney. Description: steady state diuresis 23Na MRI of corticomedullary sodium gradient. It is filed as in vivo. To be noted: mannitol (1 ml, 0.1N), n=7.
For assay [2], the system named is rat kidney. The assay is described as above. It is filed as in vivo. Particulars: for reduction in sodium content in the inner medulla (summary statement): after bolus injection; for change of the cortical-outer medullar sodium gradient versus control / cortical-outer medullar sodium gradient (slope): pixel-by-pixel analysis. How it is done:
Materials and Methods—Animals: Studies were performed on female Lewis rats, 2–4 months old and weighing 250–300 g, that had free access to food and water. Before MRI scanning, the rats were anesthetized by an intraperitoneal injection of sodium pentobarbital at a dosage of 0.04 mg/g body wt. All animal protocols and maintenance procedures were in accordance with the guidelines of the Committee on Animals of the Weizmann Institute of Science, and were approved by this Committee.
(§1) Mannitol solution (20%, 1 ml) and saline solution (0.9% NaCl, 1 ml) were injected as a bolus into the tail vein. Only one diuretic was injected into each rat.
In vivo MRI: ^1H and ^23Na spectra and images were recorded at 200 and 53 MHz, respectively with a 4.7 T Biospec spectrometer (Bruker, Rheinstetten, Germany) using a home-built 3 cm double-tuned surface coil. The rat was placed on the coil in a supine position, keeping the estimated kidney position approximately in the middle of the coil. 3D ^1H gradient echo images were recorded to localize the exact kidney position, using TE/TR of 6/30 ms FOV of 12×12×3.2 cm and a matrix of 256×256×32. For defining the regions of interest (ROI), 3D ^1H images were recorded with the same spatial resolution as that of the sodium images.
In the “steady state” studies, sodium images were recorded prior to injection of the diuretic (control measurement) and fifteen minutes after its injection. 3D ^23Na gradient echo images were recorded using a TE/TR of 3.1/60 ms and a 90° OSIRREAD adiabatic pulse, FOV of 12×12×8 cm, and a matrix of 128×128×16 with 10 or 20 scans (20 or 40 min, respectively).
Image analysis: Analysis of the kidney images was performed on selected regions of interest (ROIs) in the outer, median and inner parts of the kidney, representing the cortex, outer and inner medulla, respectively. The ROIs were defined on the corresponding coronal proton image recorded prior to the sodium images, at the same spatial resolution. The average digitized pixel intensity for each ROI was measured, and the sodium gradient was assessed by averaging the ratio of the sodium signal intensity between the inner and the outer medulla, and between the inner medulla and the cortex.
In addition, a pixel-by-pixel analysis was performed, in order to assess the behavior of the NMR sodium signal along the corticomedullary axis. In this analysis, the signal intensity in each pixel was measured from the cortex to the inner medulla along the corticomedullary axis. This yielded a graph of pixel signal intensity versus the distance of the pixel from the cortex. In the dynamic study, the average signal intensities of the inner medulla and the cortex ROIs, defined on the proton image, were measured in sodium images recorded sequentially and were then plotted against time.
Statistical analysis to evaluate differences between pixels or ROIs in the same kidney, or before and after diuretic treatment, were performed by a two-tailed paired Student's t-test; otherwise, the unpaired version of this test was used. Results are presented as mean±SEM.
In-vivo MRI: ^1H and ^23Na images and spectra were recorded at 200 and 53 MHz respectively with a 4.7 T Biospec spectrometer (Bruker, Karlsrhue, Germany) using a home built 3-cm, ^1H and ^23Na tuned surface coil. The rat was placed on the coil in a supine position with the kidney positioned in the middle of the coil. Axial and coronal 3D ^1H gradient echo images were recorded for localization of the kidney using an echo time/repetition time (TE/TR) of 6/30 ms FOV of 12×12×3.2 cm and matrix of 256×256×32. 3D gradient echo ^23Na images were recorded using (TE/TR) of 1.7/60 ms and a 90° OSIRREAD adiabatic pulse, field of view (FOV) of 12×12×8 […], and matrix of 128×128×16, with 20 scans (40 min).
The sodium image was analyzed by a pixel by pixel analysis that was performed in order to assess the behavior of the NMR sodium signal along the corticomedullary axis.

Assay [3] in a line: urine sodium concentration by 23Na NMR spectroscopy. It is filed as in vivo, rat. Particulars: urine collected from 15 min after injection, n=3. As for the experimental part:
as §1
Urine sodium: Urine samples of untreated (control) and diuretic rats were collected in a metabolic cage. Collection of the urine from the diuretic rats started 15 minutes after injection of the diuretic, when the urine flow was constant. The urine samples were then centrifuged, and the supernatants transferred to a 5 mm NMR tube placed in the center of a 10 mm NMR tube. The external tube was used as an external reference, and contained a solution of 120 mM NaCl and 5 mM of the shift reagent: thulium (III) 1,4,7,10-tetraacyclododecane-1,4,7,10-tetrakis (methylene phosphonate) (TmDOTP^5−) (Macrocyclics, Dallas, Tex., USA) reaching total [Na^+] of 150 mM. ^23Na NMR spectra were recorded with a Bruker DMX-400 spectrometer (Bruker, Rheinstetten, Germany), using a multinuclei broad band probe at 106 MHz by acquiring 10 transients with 90° pulses, pulse-to-acquisition time of delay (DE) of 6 μs, 0.47 sec repetition time (TR) and 0.27 sec acquisition time. Analysis of the ^23Na spectra was performed with an XWIN-NMR Bruker software package. Sodium concentration in the urine was calculated from the integrated area of its signal referenced to the integrated area of the shifted signal of the sodium in the external tube solution (150 mM).

Assay [4] has as its system rat kidney. Briefly: dynamic 23Na MRI of renal sodium distribution after bolus injection of diuretic. Format: in vivo. To be noted: for characteristic time constant of sodium decay in the inner medulla: dynamic 23Na MRI after bolus injection, fitted to Equation 1, n=7; for decrease in sodium level in the inner medulla: relative to pre-treatment, diuresis steady state level, n=7. How it is done:
Materials and Methods—Animals: Studies were performed on female Lewis rats, 2–4 months old and weighing 250–300 g, that had free access to food and water. […] All animal protocols and maintenance procedures were in accordance with the guidelines of the Committee on Animals of the Weizmann Institute of Science, and were approved by this Committee. […] Only one diuretic was injected into each rat. […] Image analysis: Analysis of the kidney images was performed on selected regions of interest (ROIs) in the outer, median and inner parts of the kidney, representing the cortex, outer and inner medulla, respectively. The ROIs were defined on the corresponding coronal proton image recorded prior to the sodium images, at the same spatial resolution. The average digitized pixel intensity for each ROI was measured, and the sodium gradient was assessed by averaging the ratio of the sodium signal intensity between the inner and the outer medulla, and between the inner medulla and the cortex. […] In this analysis, the signal intensity in each pixel was measured from the cortex to the inner medulla along the corticomedullary axis. This yielded a graph of pixel signal intensity versus the distance of the pixel from the cortex. In the dynamic study, the average signal intensities of the inner medulla and the cortex ROIs, defined on the proton image, were measured in sodium images recorded sequentially and were then plotted against time. Statistical analysis to evaluate differences between pixels or ROIs in the same kidney, or before and after diuretic treatment, were performed by a two-tailed paired Student's t-test; otherwise, the unpaired version of this test was used. Results are presented as mean±SEM.

Where [5] appears, read: steady state diuresis, furosemide 10 mg/kg body wt, n=7.

`OC[C@@H](O)[C@@H](O)[C@H](O)[C@H](O)CO` [mannitol]: in the assay with rat kidney [1], the “decrease of sodium concentration in the inner medulla” value turned out to be 52±1%, the “increase of sodium signal intensity in the cortex” value is 20±2% and the “increase of sodium signal intensity in the outer medulla” value is 13±1%. Further, in the assay with rat kidney [2] (diuretic steady state), the “reduction in sodium content in the inner medulla (summary statement)” value turned out to be 50% and the “sodium concentration in the outer medulla compared to control” value is listed as “increased compared to control”. Moreover, in the assay with rat kidney [2] (diuresis steady state), the “cortex to outer medulla sodium gradient relative to furosemide induced diuresis” value is recorded as “fivefold higher” and the “change of the cortical-outer medullar sodium gradient versus control” value (shortened to “change”) was “remained similar to that seen in control kidney”. In addition, the “cortical-outer medullar sodium gradient (slope)” value with rat kidney [2] (diuresis steady state, n=7) worked out at 0.45±0.12 a.u.×mm^−1. Moreover, the “change” value with rat kidney [2] (diuresis steady state, listed as Mannitol) is “did not affect”. Moreover, in the assay on rat kidney [2] (steady state diuresis), the “effect on the corticomedullary sodium gradient” value is “marked breakdown”. Besides, the “decrease of urine sodium concentration compared to the control” value in assay [3] was determined as 49±3%. Besides, the “characteristic time constant of sodium decay in the inner medulla” value in the assay with rat kidney [4] is 2.5 ± 0.4 min. In the assay on rat kidney [4] (dynamic study, after bolus injection), the “total increase in sodium concentration in the cortex” value is given as “about 25%”. In addition, the “rate of sodium reduction in the inner medulla relative to furosemide” value in the assay on rat kidney [4] (dynamic study, p=0.002) was “twice as rapidly; also recorded: more than twofold faster; also recorded: twofold faster decay”. For the same molecule, in the assay on rat kidney [4] (dynamic study), the “decrease in sodium level in the inner medulla” value was 52±5%.

As to `NS(=O)(=O)c1cc(C(=O)O)c(NCc2ccco2)cc1Cl` [furosemide], the “reduction in sodium content in the inner medulla (summary statement)” value in the assay with rat kidney [2] (diuretic steady state) amounted to 50%. Also, in the assay with rat kidney [2] (diuresis steady state), the “change” value is listed as “five-fold reduction”. For the same molecule, the “cortical-outer medullar sodium gradient (slope)” value in the assay with rat kidney [2] (diuresis steady state, n=7) was found to be 0.10±0.01 a.u.×mm^−1. Moreover, the “cortico-outer medullar sodium gradient during furosemide diuresis” value in the assay with rat kidney [2] (furosemide steady state diuresis, 10 mg/kg wt, n=7) is 0.10±0.01 a.u×mm^−1. Further, the “effect on the corticomedullary sodium gradient” value in the assay on rat kidney [2] (steady state diuresis) is recorded as “almost completely cancelled; also recorded: almost complete cancellation”. Besides, in the assay on rat kidney [2] (steady state diuresis, furosemide 1 mg/kg body weight, n=3), the “decrease in sodium signal intensity in the inner medulla” value came out at 10±2%. The “decrease in sodium signal intensity in the inner medulla” value with rat kidney [2] (steady state diuresis, furosemide 7 mg/kg body weight, n=4) was 40±4%. In addition, in the assay with rat kidney [2] (setting [5]), the “decrease of average sodium signal intensity in the inner medulla” value came out at 47±5%, the “decrease of average sodium signal intensity in the outer medulla” value was found to be 6±2% and the “increase of average sodium signal intensity in the cortex” value is recorded as 25%±3%. Also, in assay [3], the “increase of urine sodium concentration compared to the control” value turned out to be 50±5%. Also, the “characteristic time constant of sodium decay in the inner medulla” value with rat kidney [4] came out at 6.1 ± 0.8 min. The “decrease in sodium level in the inner medulla” value in the assay with rat kidney [4] (dynamic study) came to 44±6%.

The values above are taken from patent publication US7146204B2, “Method and apparatus for quantitatively evaluating a kidney” (Yeda Research and Development Co., Ltd., priority 2002, dated 2006).
